Consider eight compounds from ChEMBL document CHEMBL2069212, “Identification and in vivo and in vitro characterization of long acting and melanocortin 4 receptor (MC4-R) selective α-melanocyte-stimulating hormone (α-MSH) analogues” (J Med Chem, 2012).

Active and inactive are the calls of the source. No cut-off for these calls is given here.

The subject of data set [1] is Rattus norvegicus. The data set is described as follows: Antiobesity activity in Sprague-Dawley rat assessed as reduction of food intake at 3 mg/kg, sc qd measured up to 7 hrs relative to control. The format is functional. Also noted: scale not given: the % may be the effect or the level left. Conditions: route subcutaneous.
For data set [2], the target named is Melanocortin receptor 4 (Rattus norvegicus) (UniProt P70596). The data set is described as follows: Agonist activity at rat MC4 receptor. In kind it is functional.
Chain of Melanocortin receptor 4 (Rattus norvegicus) (P70596 whole entry): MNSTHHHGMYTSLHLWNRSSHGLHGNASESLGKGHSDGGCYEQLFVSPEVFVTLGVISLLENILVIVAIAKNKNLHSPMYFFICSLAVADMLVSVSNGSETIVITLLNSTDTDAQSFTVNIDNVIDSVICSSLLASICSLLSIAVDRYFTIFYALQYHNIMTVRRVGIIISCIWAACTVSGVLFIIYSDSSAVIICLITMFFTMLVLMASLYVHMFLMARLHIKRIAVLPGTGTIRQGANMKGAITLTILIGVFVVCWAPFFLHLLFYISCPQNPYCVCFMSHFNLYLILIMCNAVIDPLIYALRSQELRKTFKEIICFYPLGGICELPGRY
Data set [3] deals with Rattus norvegicus. The data set is described as follows: Antiobesity activity in Sprague-Dawley rat assessed as reduction of food intake at 3 mg/kg, sc qd measured after 24 to 48 hrs relative to control. The format is functional. The settings on record: route subcutaneous.
In data set [4] the test system is Rattus norvegicus. The data set is described as follows: Antiobesity activity in Sprague-Dawley rat assessed as reduction of food intake at 3 mg/kg, sc qd measured after 7 to 24 hrs relative to control. In kind it is functional. Also noted: scale not given: the % may be the effect or the level left. The settings on record: route subcutaneous.
Data set [5] has as its target Melanocyte-stimulating hormone receptor (Homo sapiens, UniProt Q01726). The data set is described as follows: Displacement of [125I]-NAD-alpha-MSH from human recombinant MC1 receptor expressed in BHK570 cells after 90 mins in presence of ovalbumin. In kind it is cell-based. On the technique in general: Loss of bound radioactivity is the signal in a displacement assay; it reports binding, not function.

The nature of data set [6]: Half life in human. The format is ADME, organism-based. The settings on record: in vivo.
The target in data set [7] is T1, Melanocortin receptor 4 (Homo sapiens, UniProt P32245). The data set is described as follows: Agonist activity at human recombinant MC4 receptor expressed in BHK570 cells assessed as induction of […] accumulation relative to alpha-MSH in presence of 0.1% human serum albumin. In kind it is functional, cell-based.
T1 sequence (P32245 whole entry): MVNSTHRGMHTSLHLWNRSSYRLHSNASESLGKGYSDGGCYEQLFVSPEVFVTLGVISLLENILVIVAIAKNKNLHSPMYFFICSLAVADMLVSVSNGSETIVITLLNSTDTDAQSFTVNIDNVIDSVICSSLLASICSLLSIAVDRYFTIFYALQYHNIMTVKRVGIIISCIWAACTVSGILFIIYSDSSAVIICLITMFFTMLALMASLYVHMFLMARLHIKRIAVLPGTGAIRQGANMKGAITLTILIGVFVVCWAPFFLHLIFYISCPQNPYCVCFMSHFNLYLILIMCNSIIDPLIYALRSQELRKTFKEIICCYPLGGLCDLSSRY
A further data set has as its target Melanocortin receptor 3 (Homo sapiens, UniProt P41968). The data set is described as follows: Displacement of [125I]-NAD-alpha-MSH from human recombinant MC3 receptor expressed in BHK570 cells after 1 hr in presence of ovalbumin. In kind it is cell-based.
Data set [8] addresses T1, Melanocortin receptor 4. The data set is described as follows: Agonist activity at human recombinant MC4 receptor expressed in BHK570 cells assessed as induction of […] accumulation in presence of 0.1% human serum albumin. In kind it is functional, cell-based.
Data set [9] addresses T1, Melanocortin receptor 4. The data set is described as follows: Displacement of [125I]-NAD-alpha-MSH from MC4 receptor after 2 hrs by gamma counting in presence of ovalbumin.
A short description of data set [10]: Dissociation constant, pKa of the compound. The format is physicochemical.
For the next data set, the target named is Melanocortin receptor 5 (Homo sapiens, UniProt P33032). The data set is described as follows: Displacement of [125I]-NAD-alpha-MSH from human recombinant MC3 receptor human MC5 expressed in BHK570 cells after 1 hr in presence of ovalbumin. The format is cell-based.
Chain of Melanocortin receptor 5 (P33032 whole entry): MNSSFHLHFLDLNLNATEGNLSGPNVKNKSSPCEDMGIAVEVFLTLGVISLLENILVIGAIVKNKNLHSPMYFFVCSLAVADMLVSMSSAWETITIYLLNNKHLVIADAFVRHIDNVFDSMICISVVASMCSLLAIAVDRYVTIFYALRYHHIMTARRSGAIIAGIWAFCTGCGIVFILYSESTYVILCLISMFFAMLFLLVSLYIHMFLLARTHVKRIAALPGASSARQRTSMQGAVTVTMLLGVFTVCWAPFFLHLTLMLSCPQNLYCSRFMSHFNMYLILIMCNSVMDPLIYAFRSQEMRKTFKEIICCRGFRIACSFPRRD
Data set [11] is described as follows: Solubility of the compound at pH 3 to 8. The format is physicochemical. The settings on record: buffer.

Chain of Melanocyte-stimulating hormone receptor (Q01726 whole entry): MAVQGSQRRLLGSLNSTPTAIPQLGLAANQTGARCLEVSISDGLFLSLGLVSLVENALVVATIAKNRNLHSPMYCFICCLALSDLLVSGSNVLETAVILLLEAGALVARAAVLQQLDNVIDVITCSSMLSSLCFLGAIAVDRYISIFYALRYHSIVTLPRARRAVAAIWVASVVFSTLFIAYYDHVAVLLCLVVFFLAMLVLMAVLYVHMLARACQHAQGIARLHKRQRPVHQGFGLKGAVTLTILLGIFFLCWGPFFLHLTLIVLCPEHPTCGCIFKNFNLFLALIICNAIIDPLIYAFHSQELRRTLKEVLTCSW
Chain of Melanocortin receptor 3 (P41968 whole entry): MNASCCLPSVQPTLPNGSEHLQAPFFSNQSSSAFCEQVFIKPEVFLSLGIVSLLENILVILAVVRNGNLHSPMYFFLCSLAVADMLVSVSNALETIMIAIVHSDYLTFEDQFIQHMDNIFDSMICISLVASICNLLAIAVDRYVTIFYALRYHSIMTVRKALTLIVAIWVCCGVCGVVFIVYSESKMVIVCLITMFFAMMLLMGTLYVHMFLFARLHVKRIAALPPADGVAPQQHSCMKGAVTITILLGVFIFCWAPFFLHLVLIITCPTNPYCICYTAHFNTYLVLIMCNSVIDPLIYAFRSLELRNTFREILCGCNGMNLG

With `CCCC[C@H](NC(=O)[C@@H](N)CNC(=O)[C@H](Cc1cnc[nH]1)NC(=O)[C@H](CCC(N)=O)NC(=O)[C@H](CO)NC(=O)CNC(=O)COCCOCCNC(=O)CCCCCCCCCCCCCCCc1nnn[nH]1)C(=O)N[C@H]1CCC(=O)NCCCC[C@@H](C(N)=O)NC(=O)[C@H](Cc2c[nH]c3ccccc23)NC(=O)[C@H](CCCNC(=N)N)NC(=O)[C@@H](Cc2ccccc2)NC(=O)[C@@H]2C[C@@H](O)CN2C1=O`, the Activity with Rattus norvegicus [1] is on record as 82%; in the data set with Rattus norvegicus [4], 54%. The result in [2] was Active. The “Food intake relative to control” value in the data set with Rattus norvegicus [3] was 81%.

For the compound `CCCC[C@H](NC(=O)[C@H](CN)NC(=O)[C@H](Cc1cnc[nH]1)NC(=O)[C@H](CCC(N)=O)NC(=O)[C@H](CO)NC(=O)CNC(=O)COCCOCCNC(=O)CCCCCCCCCCCCCCCc1nnn[nH]1)C(=O)N[C@H]1CCC(=O)NCCCC[C@@H](C(N)=O)NC(=O)[C@H](Cc2c[nH]c3ccccc23)NC(=O)[C@H](CCCNC(=N)N)NC(=O)[C@@H](Cc2ccccc2)NC(=O)[C@@H]2C[C@@H](O)CN2C1=O`, the Activity in the data set with Rattus norvegicus [1] is recorded as 49%; in the data set on Rattus norvegicus [4] it was 45%. In data set [2], the outcome was Active. In addition, in the data set with Rattus norvegicus [3], the “Food intake relative to control” value stood at 73%.

As a reminder, the Ki is the equilibrium dissociation constant of an inhibitor or competing ligand from its target. As usually defined, the half-life is the time in which the quantity being followed falls by half. `CCCC[C@H](NC(C)=O)C(=O)N[C@H]1CC(=O)NCCCC[C@@H](C(=O)O)NC(=O)[C@H](Cc2c[nH]c3ccccc23)NC(=O)[C@H](CCCNC(=N)N)NC(=O)[C@@H](Cc2ccccc2)NC(=O)[C@H](Cc2c[nH]cn2)NC1=O` [BREMELANOTIDE]: the Activity is given as 23% in the data set on Rattus norvegicus [1] and 91% in the data set with Rattus norvegicus [4]. Besides, in data set [5], the Ki came out at 6.4 nM. Moreover, the half-life in data set [6] is 2 h. The “Food intake relative to control” value in the data set with Rattus norvegicus [3] was determined as 100%.

For orientation: Emax means the maximal effect, on the per cent scale that the assay sets. As for `CCCC[C@H](NC(=O)[C@H](CCC(=O)O)NC(=O)[C@H](CCCNC(=N)N)NC(=O)[C@H](CCC(=O)O)NC(=O)[C@H](CCC(=O)O)NC(=O)CNC(=O)COCCOCCNC(=O)CCCCCCCCCCCCCCCc1nnn[nH]1)C(=O)N[C@H]1CCC(=O)NCCCC[C@@H](C(N)=O)NC(=O)[C@H](Cc2c[nH]c3ccccc23)NC(=O)[C@H](CCCNC(=N)N)NC(=O)[C@@H](Cc2ccccc2)NC(=O)[C@@H]2C[C@@H](O)CN2C1=O`, the Activity in the data set on Rattus norvegicus [1] came out at 74%; in the data set with Rattus norvegicus [4] it was 90%. Besides, the maximum response (Emax) on Melanocortin receptor 4 [7] came to 77%. The “Food intake relative to control” value with Rattus norvegicus [3] was found to be 98%.

One may read the EC50 as the midpoint of the concentration-response curve. Usually pKa stands for the pH at which an ionisable group is half protonated. `CCCCCCCCCCCCCCCC(=O)NS(=O)(=O)CCCC(=O)NCC(=O)N[C@@H](CO)C(=O)N[C@@H](CCC(N)=O)C(=O)N[C@@H](Cc1cnc[nH]1)C(=O)N[C@@H](CO)C(=O)N[C@@H](CCCC)C(=O)N[C@H]1CCC(=O)NCCCC[C@@H](C(N)=O)NC(=O)[C@H](Cc2c[nH]c3ccccc23)NC(=O)[C@H](CCCNC(=N)N)NC(=O)[C@@H](Cc2ccccc2)NC(=O)[C@@H]2C[C@@H](O)CN2C1=O`: the Activity with Rattus norvegicus [1] is listed as 40%; with Rattus norvegicus [4], 36%. The Ki on Melanocortin receptor 3 is 8.2 nM; in data set [5] it was 230 nM; on Melanocortin receptor 4 [9], 0.11 nM; on Melanocortin receptor 5, 1.2 nM. Also, at Melanocortin receptor 4 [8], the EC50 worked out at 0.15 nM. Also, the pKa in data set [10] was 2. For the same compound, the “Food intake relative to control” value with Rattus norvegicus [3] is reported as 58%.

For the compound `CCCC[C@H](NC(=O)[C@H](CO)NC(=O)[C@H](Cc1cnc[nH]1)NC(=O)[C@H](CCC(N)=O)NC(=O)[C@H](CO)NC(=O)CNC(=O)COCCOCCNC(=O)CCCCCCCCCCCCCCCc1nnn[nH]1)C(=O)N[C@H]1CCC(=O)NCCCC[C@@H](C(N)=O)NC(=O)[C@H](Cc2c[nH]c3ccccc23)NC(=O)[C@H](CCCNC(=N)N)NC(=O)[C@@H](Cc2ccccc2)NC(=O)[C@@H]2C[C@@H](O)CN2C1=O`, the Activity in the data set on Rattus norvegicus [1] turned out to be 79%; with Rattus norvegicus [4], 56%. Also, the Ki on Melanocortin receptor 3 stood at 67 nM; in data set [5], 1200 nM; on Melanocortin receptor 4 [9] it was 0.2 nM; on Melanocortin receptor 5, 15 nM. For the same compound, the EC50 at Melanocortin receptor 4 [8] stood at 170 nM. Moreover, the “Food intake relative to control” value in the data set with Rattus norvegicus [3] amounted to 92%.

For `CCCC[C@H](NC(=O)[C@H](CNC(=O)CN(CC(=O)O)CC(=O)O)NC(=O)[C@H](Cc1cnc[nH]1)NC(=O)[C@H](CCC(N)=O)NC(=O)[C@H](CO)NC(=O)CNC(=O)COCCOCCNC(=O)CCCCCCCCCCCCCCCc1nnn[nH]1)C(=O)N[C@H]1CCC(=O)NCCCC[C@@H](C(N)=O)NC(=O)[C@H](Cc2c[nH]c3ccccc23)NC(=O)[C@H](CCCNC(=N)N)NC(=O)[C@@H](Cc2ccccc2)NC(=O)[C@@H]2C[C@@H](O)CN2C1=O`, the values for the Activity in the data set on Rattus norvegicus [1] and in the data set with Rattus norvegicus [4] were 53% and 39%, respectively. In addition, on Melanocortin receptor 4 [7], the Emax worked out at 85%. Moreover, the result in [2] was Active. Moreover, the “Food intake relative to control” value in the data set on Rattus norvegicus [3] amounted to 66%.

With `CCCC[C@H](NC(=O)[C@H](CNC(=O)CN(CC(=O)O)CC(=O)O)NC(=O)[C@H](Cc1cnc[nH]1)NC(=O)[C@H](CCC(N)=O)NC(=O)[C@H](CO)NC(=O)CNC(=O)COCCOCCNC(=O)CCCCCCCCCCCCCCCc1nnn[nH]1)C(=O)N[C@H]1CCC(=O)NCCCC[C@@H](C(N)=O)NC(=O)[C@H](Cc2c[nH]c3ccccc23)NC(=O)[C@H](CCCN=C(N)N)NC(=O)[C@@H](Cc2ccccc2)NC(=O)[C@@H]2C[C@@H](O)CN2C1=O`, the Ki on Melanocortin receptor 3 came to 71 nM; on Melanocortin receptor 5, 13 nM. For the same compound, on Melanocortin receptor 4 [8], the half-maximal effective concentration (EC50) was determined as 88 nM. The solubility result in [11] is “soluble”.
